Some test systems named below: TK-10 renal; CCRF-CEM leukemia; U251 CNS; SF-295 CNS; MDA-MB-435; MOLT-4 leukemia; PC-3 prostate; NCI-H226 lung; IGROV1 ovarian; EKVX NSCLC.
Holding throughout (assay): NCI tumour cell line growth inhibition, 48 h

This is an account of results in PubChem BioAssay (NCI).

Each structure is given as a SMILES string.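 1) Cells in 96-well plates. 2) Compound, 48 h, 5 concentrations. 3) Linear interpolation between surrounding doses. 4) Unreached endpoint = highest concentration. Abbreviation: GI50, concentration required for 50% inhibition of growth. The concentration for full growth arrest is given as TGI.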 Bounds are passed on as bounds.

For the compound `CCN(CC)CCCC(C)N=C(C1=C(C(=NC(C)CCCN(CC)CC)c2cccc(OC)c2)C(=O)NC1=O)c1cccc(OC)c1` (configuration not stated), the GI50 is 1260 nM in the test on TK-10 renal; 1490 nM in the test on CCRF-CEM leukemia; 1060 nM in the test with U251 CNS; 1470 nM with SF-295 CNS; 871 nM in the test on MDA-MB-435; 1330 nM in the test on MOLT-4 leukemia. In addition, the figures for the GI50 in the test on PC-3 prostate, in the test on NCI-H226 lung and in the test on IGROV1 ovarian were 1470 nM, 2830 nM and 3670 nM, respectively. Besides, the TGI in the test on TK-10 renal was 3440 nM; with CCRF-CEM leukemia, 7470 nM; with U251 CNS, 2500 nM; with SF-295 CNS, 5940 nM; in the test with MDA-MB-435, 1680 nM; in the test on MOLT-4 leukemia it was 4240 nM. For the same compound, the TGI is 5120 nM in the test with PC-3 prostate, 13600 nM with NCI-H226 lung and 20600 nM with IGROV1 ovarian.
On to `Cc1cc(C)c(Cn2cnc3c(Cl)ncnc32)c(C)c1CCl`, for which the GI50 in the test on CCRF-CEM leukemia is 24900 nM; in the test on U251 CNS, 2770 nM; in the test on SF-295 CNS it was over 100000 nM; with MDA-MB-435, over 100000 nM; in the test on MOLT-4 leukemia, 23300 nM; in the test on PC-3 prostate it was over 100000 nM. Moreover, the GI50 with NCI-H226 lung, in the test on EKVX NSCLC and in the test on IGROV1 ovarian was over 100000 nM in each case. In addition, the TGI with CCRF-CEM leukemia is 95200 nM; in the test with U251 CNS, 45400 nM; in the test with SF-295 CNS, over 100000 nM; in the test on MDA-MB-435 it was over 100000 nM; in the test on MOLT-4 leukemia, 63400 nM; with PC-3 prostate it was over 100000 nM. For the same compound, the TGI in the test with NCI-H226 lung, in the test with EKVX NSCLC and with IGROV1 ovarian was over 100000 nM each time.
Regarding `SCCSCCCSCCS`, the TGI was 41500 nM in the test with CCRF-CEM leukemia; over 100000 nM with U251 CNS; over 100000 nM in the test on SF-295 CNS; over 100000 nM in the test on MDA-MB-435; 31200 nM in the test on MOLT-4 leukemia; over 100000 nM with PC-3 prostate. The TGI with EKVX NSCLC and in the test with IGROV1 ovarian was over 100000 nM in each case.
With `CN(Cc1cc(Cl)cc(Cl)c1)CC(C(=O)c1ccccc1)c1ccccc1` (configuration not stated), the TGI is 23000 nM with TK-10 renal; 4170 nM in the test with U251 CNS; over 100000 nM in the test on SF-295 CNS; 16000 nM in the test on MDA-MB-435; 29300 nM in the test with PC-3 prostate; 22400 nM in the test with NCI-H226 lung. In addition, the results for the TGI in the test on EKVX NSCLC and with IGROV1 ovarian were 57600 nM and over 58300 nM, respectively.
For the compound `O=C(/C=C/c1ccccc1)n1c(-c2ccc(Cl)cc2)nc2ccccc21`, the GI50 is 2350 nM with TK-10 renal; 731 nM in the test with CCRF-CEM leukemia; 1600 nM with U251 CNS; 2500 nM in the test with SF-295 CNS; 1110 nM in the test with MDA-MB-435; 1130 nM in the test with MOLT-4 leukemia. Moreover, the GI50 was 1910 nM in the test on PC-3 prostate, 2170 nM with NCI-H226 lung and 1950 nM with IGROV1 ovarian. The TGI was 7930 nM in the test with TK-10 renal; 3450 nM with CCRF-CEM leukemia; 3220 nM with U251 CNS; 6460 nM with SF-295 CNS; 3040 nM in the test with MDA-MB-435; 6730 nM with MOLT-4 leukemia. In addition, the TGI with PC-3 prostate turned out to be 6730 nM; in the test on NCI-H226 lung, 6000 nM; in the test with IGROV1 ovarian, 4630 nM.
Turning to `COc1ccc2c(c1)CC[C@H](O)/C2=C/c1cc(OC)c(OC)c(OC)c1`, the GI50 in the test on TK-10 renal is 34400 nM; in the test with CCRF-CEM leukemia it was 273 nM; with U251 CNS, 143 nM; in the test with MOLT-4 leukemia it was 351 nM; with PC-3 prostate, 85.5 nM; with NCI-H226 lung, 2950 nM. For the same compound, the GI50 is 1210 nM in the test on EKVX NSCLC and 1380 nM in the test on IGROV1 ovarian. Moreover, the TGI in the test with TK-10 renal, in the test with CCRF-CEM leukemia, in the test with U251 CNS, in the test with MOLT-4 leukemia, in the test on PC-3 prostate and in the test with NCI-H226 lung was over 100000 nM each time. The TGI in the test with EKVX NSCLC and with IGROV1 ovarian was over 100000 nM throughout.
For the compound `COc1ccc2nc3cc([N+](=O)[O-])ccc3c(NCCCN(C)C)c2c1`, the GI50 is 557 nM with CCRF-CEM leukemia; 44.1 nM in the test with U251 CNS; 350 nM with SF-295 CNS; 247 nM with MDA-MB-435; 43.2 nM in the test on MOLT-4 leukemia; 251 nM in the test on NCI-H226 lung. For the same compound, the GI50 in the test on EKVX NSCLC is 2250 nM; in the test with IGROV1 ovarian, 363 nM. Also, the TGI in the test on CCRF-CEM leukemia was 4310 nM; in the test with U251 CNS it was 375 nM; in the test with SF-295 CNS it was 2390 nM; in the test on MDA-MB-435 it was 1000 nM; in the test on MOLT-4 leukemia it was 680 nM; in the test with PC-3 prostate, 1550 nM. Moreover, the TGI in the test on NCI-H226 lung turned out to be 2420 nM; with EKVX NSCLC it was 7910 nM; with IGROV1 ovarian, 3590 nM.
Consider `Cn1c2ccc(Br)cc2c2c3c(c4c5ccccc5[nH]c4c21)C(=O)N(O)C3=O`, for which the GI50 in the test on TK-10 renal was 655 nM; with CCRF-CEM leukemia it was 41.2 nM; in the test with U251 CNS, 86.5 nM; in the test on SF-295 CNS, 223 nM; with MDA-MB-435 it was 180 nM; in the test on MOLT-4 leukemia, 46 nM. The GI50 in the test on NCI-H226 lung is 1060 nM; in the test with EKVX NSCLC it was 232 nM; with IGROV1 ovarian it was 262 nM. The TGI was determined as 1420 nM in the test with TK-10 renal; 956 nM in the test with CCRF-CEM leukemia; 266 nM with U251 CNS; 633 nM with SF-295 CNS; 498 nM in the test on MDA-MB-435; 312 nM in the test on MOLT-4 leukemia. For the same compound, the values for the TGI in the test on NCI-H226 lung, with EKVX NSCLC and in the test on IGROV1 ovarian were 2920 nM, 896 nM and 1070 nM, respectively.
With `COc1cc(-c2nc(-c3nc4ccccc4[nH]3)cc3c2[nH]c2ccccc23)cc(OC)c1OC`, the GI50 in the test with TK-10 renal is 4710 nM; in the test on CCRF-CEM leukemia it was 3960 nM; in the test with U251 CNS, 4760 nM; in the test on MDA-MB-435, 3650 nM; in the test on MOLT-4 leukemia, 3930 nM; with PC-3 prostate, 2640 nM. For the same compound, the GI50 in the test on NCI-H226 lung was 7190 nM; with IGROV1 ovarian, 2940 nM. The TGI in the test on TK-10 renal, in the test on CCRF-CEM leukemia, in the test with U251 CNS, in the test with MDA-MB-435, with MOLT-4 leukemia and in the test on PC-3 prostate was over 100000 nM each time. Moreover, the TGI with NCI-H226 lung and in the test on IGROV1 ovarian was over 100000 nM in each case.
